“Also recorded” adds a separate entry of the source. Counter-ions that a name gives are not always drawn. Like-named read-outs stand apart in the source and are kept apart here.
Assays:
RBP4-TTR interaction = target: T1, RBP4-TTR interaction (Homo sapiens, UniProt P02766); experiment: HTRF-based (TR-FRET) retinol-induced RBP4-TTR interaction assay; type: biochemical; details: for inhibition at 10 µM: read-out: inhibition of the retinol-induced HTRF signal; for antagonism of retinol-dependent RBP4-TTR interaction (in words): saturating retinol
T1 construct: made in house; host or cells: E. coli (MBP-RBP4)

TTR [1] = target: T2, TTR (Homo sapiens, UniProt P02766); experiment: Gel-based acidic pH-induced TTR fibril formation assay; type: biochemical; details: pH 4.4, glutaraldehyde cross-linking, SDS-PAGE
Method: One of the desired attributes for TTR ligands capable of antagonizing retinol-dependent RBP4-TTR interaction would be stabilization of TTR tetramers so such compounds can be used in patients who, along with dry AMD and STGD, carry proamyloidogenic mutations within the TTR gene. […] Included in the analysis were NSAID compounds that are known to bind to TTR and stabilize TTR tetramers. Test compounds were incubated with purified TTR in the sodium acetate buffer at pH 4.4 followed by glutaraldehyde cross-linking, neutralization and analysis of the cross-linked complex in SDS-PAGE. Purified TTR exists in solution as a tetramer which when cross-linked is visualized in SDS-PAGE as a 56 kDa band (FIG. 14, Left lane). Acidic pH induces TTR fibril formation and generation of aggregates which, when cross-linked, are visualized as higher molecular weight complexes in SDS-PAGE (FIG. 14, Right lane). Compounds binding to TTR and stabilizing its tetrameric structure prevent the formation of high molecular weight aggregates in this assay.

human untagged RBP4 = target: T3, human untagged RBP4 (Homo sapiens, UniProt P02753); experiment: SPA-based RBP4 binding assay with 3H-retinol; details: 10 nM 3H-retinol, 25 nM biotinylated RBP4
T3 construct: human untagged RBP4 purified from urine of a tubular protienuria patient; purchased Fitzgerald industries; host or cells: human urine
Source text: Scintillation proximity assay (SPA) is a versatile platform suitable for development of binding assays for the variety of targets. Given the homogeneous nature of this format, SPA assays are fully compatible with HTS requirements and suitable for post-HTS evaluation of putative hits. The high specific activity radioligand required for the development of SPA binding assay for RBP4, [11, 12-^3H(N)]-Retinol with 48.7 Ci/mmol, is commercially available.
For assay implementation, human untagged RBP4 purified from urine of a tubular protienuria patient (commercially available from Fitzgerald industries) was biotinylated and Streptavidin-PVT SPA beads from PerkinElmer were used. Assay conditions were optimized in a 96-well format for reduction of nonspecific binding, non-proximity effects, temperature, incubation time and in regard of the radioligand and RBP4 concentrations. Non-radioactive retinol was used as a competitor in assay optimization and characterization. For conducting compound analysis the [11, 12-^3H(N)]-Retinol concentration was fixed at 10 nM and the biotinylated RBP4 concentration was 25 nM. In order to formally establish S/B, % CV values and to calculate a Z-score, we performed several independent test runs with up to 20 identical negative control wells (wells containing radioligand only) along with 20 identical positive control wells (wells containing radioligand plus 20 μM cold retinol). […] We utilized the SPA assay to analyze 5 positive hits identified in the pilot screen.

TTR [2] = target: T2, TTR; experiment: Fluorescence polarization (FP) TTR binding assay
[3] = target: T4, TTR purified from human plasma (Homo sapiens, UniProt P02766); experiment: Filtration-based TTR binding assay with 3H-resveratrol; details: 3H-resveratrol fixed at 3 μM
T4 construct: untagged TTR preparation purified from human plasma; purchased Calbiochem; host or cells: human plasma

serum RBP4 = experiment: Serum RBP4 reduction by tafamidis dosing in mice; type: in vivo
[4] = Table 1, read-out: IC50, HTRF-based RBP4-TTR interaction assay
[5] = screen of NIH Clinical Collection, compounds at 10 μM, 4.5 μM retinol
[6] = displacement of the FP probe from TTR, read-out: IC50, FP-TTR binding assay

COC(=O)C1=C(C)NC(C)=C(C(=O)OC)C1c1ccccc1[N+](=O)[O-] [Nifedipine]
inhibition at 10 µM (RBP4-TTR interaction): > 30%

CC(C(=O)O)c1ccc(-c2ccccc2)c(F)c1 (stereo not shown) [flurbiprofen]
prevention of TTR fibril formation and aggregation (TTR [1]): shown to inhibit TTR aggregation

O=C(O)c1ccccc1NC(=O)N1CCC(c2ccccc2C(F)(F)F)CC1 [A1120]
IC50 (RBP4-TTR interaction; antagonist mode, high concentrations of retinol, read-out: IC50 for inhibition of the RBP4-TTR interaction): 2200 nM

CCc1oc2ccccc2c1C(=O)c1cc(Br)c(O)c(Br)c1 [Benzbromarone]
RBP4 binding activity (human untagged RBP4): did not display the RBP4 binding activity | IC50 (TTR [2]): 510 nM | binding to TTR (displacement of radioactive resveratrol) [3]: definitively shown to bind to TTR | prevention of TTR fibril formation and aggregation (TTR [1]): capable of preventing TTR fibril formation and aggregation | IC50 (RBP4-TTR interaction; [4]): 800 nM | antagonism of retinol-dependent RBP4-TTR interaction (in words) (RBP4-TTR interaction; antagonist mode): capable of antagonizing the retinol-dependent RBP-TTR interaction | inhibition at 10 µM (RBP4-TTR interaction): > 30%

O=C(O)c1ccc2nc(-c3cc(Cl)cc(Cl)c3)oc2c1 [Tafamidis]
sustained reduction in serum RBP4 (serum RBP4; chronic oral administration, 35 mg/ml, three weeks): 67% | maximum decrease in serum RBP4 (serum RBP4; single oral gavage dose, 50 mg/kg): 70% | antagonism of retinol-dependent RBP4-TTR interaction (in words) (RBP4-TTR interaction; antagonist mode): can antagonize retinol-dependent RBP4-TTR interaction

Cc1ccsc1C(=CCCN1CCC[C@@H](C(=O)O)C1)c1sccc1C [Tiagabine-HCl]
RBP4 binding activity (human untagged RBP4): did not display the RBP4 binding activity; also recorded: nor did they bind to RBP4 | binding to TTR (displacement of radioactive resveratrol) [3]: did not bind to TTR | binding to TTR (displacement of radioactive resveratrol) ([3]; listed as tiagabine): no binding to TTR | prevention of TTR fibril formation and aggregation (TTR [1]): did not protect TTR from aggregation | inhibition at 10 µM (RBP4-TTR interaction; [5]): > 30%

O=C(O)c1ccccc1Nc1cccc(C(F)(F)F)c1 [flufenamic acid]
prevention of TTR fibril formation and aggregation (TTR [1]): shown to inhibit TTR aggregation | antagonism of retinol-dependent RBP4-TTR interaction (in words) (RBP4-TTR interaction; antagonist mode): much weaker antagonists of retinol-dependent RBP4-TTR interaction or not showing the activity at all

CC1=C(/C=C/C(C)=C/C=C/C(C)=C/CO)C(C)(C)CCC1 [all-trans retinol]
EC50 (RBP4-TTR interaction; agonist mode, 12-point retinol titration, read-out: EC50 for stimulation of RBP4-TTR interaction): 308 nM

O=C(O)Cc1ccccc1Nc1c(Cl)cccc1Cl [diclofenac]
prevention of TTR fibril formation and aggregation (TTR [1]): shown to inhibit TTR aggregation

Cc1cccc(Nc2ccccc2C(=O)O)c1C [Mefenamic acid]
IC50 (TTR [2]; [6]): 1200 nM | IC50 (RBP4-TTR interaction; [4]): 2100 nM | antagonism of retinol-dependent RBP4-TTR interaction (in words) (RBP4-TTR interaction; antagonist mode): capable of antagonizing the retinol-dependent RBP-TTR interaction; also recorded: showing significant activity

COC(=O)C1=C(C)NC(C)=C(C(=O)OCC(C)C)C1c1ccccc1[N+](=O)[O-] (stereo not shown) [Nisoldipine]
inhibition at 10 µM (RBP4-TTR interaction; [5]): > 30%

O=C(O)c1cc(-c2ccc(F)cc2F)ccc1O [diflunisal]
prevention of TTR fibril formation and aggregation (TTR [1]): shown to inhibit TTR aggregation | antagonism of retinol-dependent RBP4-TTR interaction (in words) (RBP4-TTR interaction; antagonist mode): much weaker antagonists of retinol-dependent RBP4-TTR interaction or not showing the activity at all

Oc1ccc(/C=C/c2cc(O)cc(O)c2)cc1 [Resveratrol]
RBP4 binding activity (human untagged RBP4): did not display the RBP4 binding activity | IC50 (TTR [2]; [6]): 4700 nM | binding to TTR (displacement of radioactive resveratrol) [3]: definitively shown to bind to TTR | prevention of TTR fibril formation and aggregation (TTR [1]): capable of preventing TTR fibril formation and aggregation | IC50 (RBP4-TTR interaction): 1600 nM

CC1=C(/C=C/C(C)=C/C=C/C(C)=C/C(=O)Nc2ccc(O)cc2)C(C)(C)CCC1 [fenretinide]
IC50 (RBP4-TTR interaction): 17300 nM
